Results published in ChEMBL document CHEMBL1143531, “Synthesis, in vitro, and in vivo antibacterial activity of nocathiacin I thiol-Michael adducts” (2005).
Converted amounts (≈) assume the structure as drawn.

What was measured:
Assay type in all cases: functional
Staphylococcus aureus = experiment: In vitro minimum inhibitory concentration against methicillin sensitive […] A15090
Enterococcus faecalis = experiment: In vitro minimum inhibitory concentration against methicillin sensitive Enterococcus faecalis A20688
Streptococcus pneumoniae = experiment: In vitro minimum inhibitory concentration against penicillin resistant Streptococcus pneumoniae A28272
Mus musculus = experiment: In vivo protective dose required for mouse against systemic lethal […] infection; details: read-out: PD50

Compound | MIC (Staphylococcus aureus) [mg/L] | MIC (Enterococcus faecalis) [mg/L] | MIC (Streptococcus pneumoniae) [mg/L] | ED50 (Mus musculus) [mg/kg]
CO/C(C)=C1/NC(=O)C([C@@H](C)O)NC(=O)c2csc(n2)-c2cc(O)c(-c3nc(C(=O)NC(SC4CN5CCC4C5)C(N)=O)cs3)nc2-c2csc(n2)[C@@H]2COC(=O)c3c4c5c(cccc5n3O)COC(=O)[C@@H](O[C@H]3C[C@](C)(O)[C@H](N(C)C)[C@H](C)O3)[C@@H](OC4)[C@H](NC(=O)c3csc1n3)c1nc(cs1)C(=O)N2 (some centres not stated) | 2 (≈ 1.29 µM) | 2 (≈ 1.29 µM) | 0.25 (≈ 0.161 µM) | 2.5
CO/C(C)=C1/NC(=O)C([C@@H](C)O)NC(=O)c2csc(n2)-c2cc(O)c(-c3nc(C(=O)NC(SC(CC(=O)O)C(=O)O)C(N)=O)cs3)nc2-c2csc(n2)[C@@H]2COC(=O)c3c4c5c(cccc5n3O)COC(=O)[C@@H](O[C@H]3C[C@](C)(O)[C@H](N(C)C)[C@H](C)O3)[C@@H](OC4)[C@H](NC(=O)c3csc1n3)c1nc(cs1)C(=O)N2 (some centres not stated) | 4 (≈ 2.54 µM) | 4 (≈ 2.54 µM) | 0.25 (≈ 0.159 µM) | > 10
CO/C(C)=C1/NC(=O)C([C@@H](C)O)NC(=O)c2csc(n2)-c2cc(O)c(-c3nc(C(=O)NC(SCC(N)C(=O)O)C(N)=O)cs3)nc2-c2csc(n2)[C@@H]2COC(=O)c3c4c5c(cccc5n3O)COC(=O)[C@@H](O[C@H]3C[C@](C)(O)[C@H](N(C)C)[C@H](C)O3)[C@@H](OC4)[C@H](NC(=O)c3csc1n3)c1nc(cs1)C(=O)N2 (some centres not stated) | 1 (≈ 0.647 µM) | 4 (≈ 2.59 µM) | 2 (≈ 1.29 µM) | –
CO/C(C)=C1/NC(=O)C([C@@H](C)O)NC(=O)c2csc(n2)-c2cc(O)c(-c3nc(C(=O)NC(SCCN(C)C)C(N)=O)cs3)nc2-c2csc(n2)[C@@H]2COC(=O)c3c4c5c(cccc5n3O)COC(=O)[C@@H](O[C@H]3C[C@](C)(O)[C@H](N(C)C)[C@H](C)O3)[C@@H](OC4)[C@H](NC(=O)c3csc1n3)c1nc(cs1)C(=O)N2 (some centres not stated) | 0.125 (≈ 0.0818 µM) | 0.25 (≈ 0.164 µM) | 0.015 (≈ 0.00981 µM) | 1
CO/C(C)=C1/NC(=O)C([C@@H](C)O)NC(=O)c2csc(n2)-c2cc(O)c(-c3nc(C(=O)NC(SCCc4nnn[nH]4)C(N)=O)cs3)nc2-c2csc(n2)[C@@H]2COC(=O)c3c4c5c(cccc5n3O)COC(=O)[C@@H](O[C@H]3C[C@](C)(O)[C@H](N(C)C)[C@H](C)O3)[C@@H](OC4)[C@H](NC(=O)c3csc1n3)c1nc(cs1)C(=O)N2 (some centres not stated) | 2 (≈ 1.29 µM) | 32 (≈ 20.6 µM) | 0.25 (≈ 0.161 µM) | > 10
CO/C(C)=C1/NC(=O)C([C@@H](C)O)NC(=O)c2csc(n2)-c2cc(O)c(-c3nc(C(=O)NC(SC[C@@H]4NC(=O)NC4=O)C(N)=O)cs3)nc2-c2csc(n2)[C@@H]2COC(=O)c3c4c5c(cccc5n3O)COC(=O)[C@@H](O[C@H]3C[C@](C)(O)[C@H](N(C)C)[C@H](C)O3)[C@@H](OC4)[C@H](NC(=O)c3csc1n3)c1nc(cs1)C(=O)N2 (some centres not stated) | 4 (≈ 2.55 µM) | 128 (≈ 81.5 µM) | 0.03 (≈ 0.0191 µM) | > 10
CCN(CC)CCSC(NC(=O)c1csc(-c2nc3c(cc2O)-c2nc(cs2)C(=O)NC([C@@H](C)O)C(=O)N/C(=C(\C)OC)c2nc(cs2)C(=O)N[C@@H]2c4nc(cs4)C(=O)N[C@@H](COC(=O)c4c5c6c(cccc6n4O)COC(=O)[C@@H](O[C@H]4C[C@](C)(O)[C@H](N(C)C)[C@H](C)O4)[C@H]2OC5)c2nc-3cs2)n1)C(N)=O (some centres not stated) | 0.125 (≈ 0.0803 µM) | 0.25 (≈ 0.161 µM) | 0.015 (≈ 0.00964 µM) | 1.1
CO/C(C)=C1/NC(=O)C([C@@H](C)O)NC(=O)c2csc(n2)-c2cc(O)c(-c3nc(C(=O)NC(SCCS(=O)(=O)[O-])C(N)=O)cs3)nc2-c2csc(n2)[C@@H]2COC(=O)c3c4c5c(cccc5n3O)COC(=O)[C@@H](O[C@H]3C[C@](C)(O)[C@H](N(C)C)[C@H](C)O3)[C@@H](OC4)[C@H](NC(=O)c3csc1n3)c1nc(cs1)C(=O)N2.[Na+] (some centres not stated) | 4 | 128 | 0.06 | > 10
CCN(CC)CCS(=O)(=O)C(NC(=O)c1csc(-c2nc3c(cc2O)-c2nc(cs2)C(=O)NC([C@@H](C)O)C(=O)N/C(=C(\C)OC)c2nc(cs2)C(=O)N[C@@H]2c4nc(cs4)C(=O)N[C@@H](COC(=O)c4c5c6c(cccc6n4O)COC(=O)[C@@H](O[C@H]4C[C@](C)(O)[C@H](N(C)C)[C@H](C)O4)[C@H]2OC5)c2nc-3cs2)n1)C(N)=O (some centres not stated) | 0.06 (≈ 0.0378 µM) | 0.03 (≈ 0.0189 µM) | 0.007 (≈ 0.00441 µM) | 1.4
COCC(Cn1ccnc1)SC(NC(=O)c1csc(-c2nc3c(cc2O)-c2nc(cs2)C(=O)NC([C@@H](C)O)C(=O)N/C(=C(\C)OC)c2nc(cs2)C(=O)N[C@@H]2c4nc(cs4)C(=O)N[C@@H](COC(=O)c4c5c6c(cccc6n4O)COC(=O)[C@@H](O[C@H]4C[C@](C)(O)[C@H](N(C)C)[C@H](C)O4)[C@H]2OC5)c2nc-3cs2)n1)C(N)=O (some centres not stated) | 0.25 (≈ 0.157 µM) | 0.125 (≈ 0.0783 µM) | 0.03 (≈ 0.0188 µM) | 1.4
CO/C(C)=C1/NC(=O)C([C@@H](C)O)NC(=O)c2csc(n2)-c2cc(O)c(-c3nc(C(=O)NC(SCC(NC(C)=O)C(=O)O)C(N)=O)cs3)nc2-c2csc(n2)[C@@H]2COC(=O)c3c4c5c(cccc5n3O)COC(=O)[C@@H](O[C@H]3C[C@](C)(O)[C@H](N(C)C)[C@H](C)O3)[C@@H](OC4)[C@H](NC(=O)c3csc1n3)c1nc(cs1)C(=O)N2 (some centres not stated) | 2 (≈ 1.26 µM) | 8 (≈ 5.04 µM) | 0.125 (≈ 0.0788 µM) | > 10
CO/C(C)=C1/NC(=O)C([C@@H](C)O)NC(=O)c2csc(n2)-c2cc(O)c(-c3nc(C(=O)NC(SCCC(=O)O)C(N)=O)cs3)nc2-c2csc(n2)[C@@H]2COC(=O)c3c4c5c(cccc5n3O)COC(=O)[C@@H](O[C@H]3C[C@](C)(O)[C@H](N(C)C)[C@H](C)O3)[C@@H](OC4)[C@H](NC(=O)c3csc1n3)c1nc(cs1)C(=O)N2 (some centres not stated) | 1 (≈ 0.654 µM) | – | 0.01 (≈ 0.00654 µM) | > 10
CO/C(C)=C1/NC(=O)C([C@@H](C)O)NC(=O)c2csc(n2)-c2cc(O)c(-c3nc(C(=O)NC(SCCN=C(N)N)C(N)=O)cs3)nc2-c2csc(n2)[C@@H]2COC(=O)c3c4c5c(cccc5n3O)COC(=O)[C@@H](O[C@H]3C[C@](C)(O)[C@H](N(C)C)[C@H](C)O3)[C@@H](OC4)[C@H](NC(=O)c3csc1n3)c1nc(cs1)C(=O)N2 (some centres not stated) | 4 (≈ 2.59 µM) | > 128 | 2 (≈ 1.3 µM) | –
CO/C(C)=C1/NC(=O)C([C@@H](C)O)NC(=O)c2csc(n2)-c2cc(O)c(-c3nc(C(=O)NC(SCCc4cnccn4)C(N)=O)cs3)nc2-c2csc(n2)[C@@H]2COC(=O)c3c4c5c(cccc5n3O)COC(=O)[C@@H](O[C@H]3C[C@](C)(O)[C@H](N(C)C)[C@H](C)O3)[C@@H](OC4)[C@H](NC(=O)c3csc1n3)c1nc(cs1)C(=O)N2 (some centres not stated) | 0.125 (≈ 0.0799 µM) | 0.25 (≈ 0.16 µM) | 0.015 (≈ 0.00959 µM) | 4.4
CO/C(C)=C1/NC(=O)C([C@@H](C)O)NC(=O)c2csc(n2)-c2cc(O)c(-c3nc(C(=O)NC(SCC(=O)O)C(N)=O)cs3)nc2-c2csc(n2)[C@@H]2COC(=O)c3c4c5c(cccc5n3O)COC(=O)[C@@H](O[C@H]3C[C@](C)(O)[C@H](N(C)C)[C@H](C)O3)[C@@H](OC4)[C@H](NC(=O)c3csc1n3)c1nc(cs1)C(=O)N2 (some centres not stated) | 2 (≈ 1.32 µM) | 1 (≈ 0.66 µM) | 0.125 (≈ 0.0825 µM) | > 10
CO/C(C)=C1/NC(=O)C([C@@H](C)O)NC(=O)c2csc(n2)-c2cc(O)c(-c3nc(C(=O)NC(SCCP(=O)([O-])O)C(N)=O)cs3)nc2-c2csc(n2)[C@@H]2COC(=O)c3c4c5c(cccc5n3O)COC(=O)[C@@H](O[C@H]3C[C@](C)(O)[C@H](N(C)C)[C@H](C)O3)[C@@H](OC4)[C@H](NC(=O)c3csc1n3)c1nc(cs1)C(=O)N2.[Na+] (some centres not stated) | 2 | 32 | 0.25 | –
CO/C(C)=C1/NC(=O)C([C@@H](C)O)NC(=O)c2csc(n2)-c2cc(O)c(-c3nc(C(=O)NC(C(N)=O)S(=O)(=O)C4C5CCN4CC5)cs3)nc2-c2csc(n2)[C@@H]2COC(=O)c3c4c5c(cccc5n3O)COC(=O)[C@@H](O[C@H]3C[C@](C)(O)[C@H](N(C)C)[C@H](C)O3)[C@@H](OC4)[C@H](NC(=O)c3csc1n3)c1nc(cs1)C(=O)N2 (some centres not stated) | 0.5 (≈ 0.316 µM) | 1 (≈ 0.631 µM) | 0.06 (≈ 0.0379 µM) | –
C=C(NC(=O)c1csc(-c2nc3c(cc2O)-c2nc(cs2)C(=O)N[C@@H]([C@@H](C)O)C(=O)N/C(=C(\C)OC)c2nc(cs2)C(=O)N[C@@H]2c4nc(cs4)C(=O)N[C@@H](COC(=O)c4c5c6c(cccc6n4O)COC(=O)[C@@H](O[C@H]4C[C@](C)(O)[C@H](N(C)C)[C@H](C)O4)[C@H]2OC5)c2nc-3cs2)n1)C(N)=O [MJ347-81F4 A] | 0.007 (≈ 0.00487 µM) | 0.03 (≈ 0.0209 µM) | 0.002 (≈ 0.00139 µM) | 0.8
